In PMC11504230, “Comparative Properties of Helical and Linear Amphipathicity of Peptides Composed of Arginine, Tryptophan, and Valine” (Antibiotics, 2024):
Ends that are not written are not given here.

Legend:
E. faecium = type: cell-based; details: 18 h
Protocol: (§1) To examine antibacterial activity, we used minor modifications of a standard growth inhibition assay endorsed by the Clinical and Laboratory Standards Institute (CLSI), as previously described. Bacterial inocula for testing were prepared from exponential growth phase by diluting overnight cultures at 1:100 with fresh Tryptic soy broth (TSB) (Millipore Sigma, USA, Cat. No. 22092-500G) and incubating for an additional 3–4 h. Bacteria were spun at 3000× g for 10 min and the pellet was resuspended in phosphate-buffered saline (PBS) (Millipore Sigma, St Louis, MO, USA, Cat. No. P4417) to determine bacterial turbidity using a Den-1B densitometer (Grant Instruments, Beaver Falls, PA, USA) at 0.5 McFarland (unit of bacterial density) corresponding to […]. The prepared bacteria were incubated with each of the indicated peptides at a maximum test concentration of 16 µM and serially diluted in MHB2 and RPMI 1640 (Corning, NY, USA, Cat. No. 15-040-CM) at a 1:1 ratio. The plates were kept in an 8-drawer incubator for 18 h at 37 °C. A robotic system takes a plate from the drawer every hour and feeds a plate reader, which records the kinetics of bacterial growth at 570 nm to examine growth inhibition in real time (BioTek Instruments, Winooski, VT, USA). The minimum inhibitory concentration or MIC is the minimum peptide concentration that prevented bacterial growth, and it is objectively indicated by a flat (horizontal) line in the bacterial growth kinetic graph. Most assays are completed in duplicate. To assay for anti-biofilm activities, the 96-well plate from the growth inhibition assay is incubated for an additional 6 h (24 h total). The biomass was detected with crystal violet using a plate reader at A570, as previously described.
(§2) Figure 2 Comparative antibacterial activities of the H-RWV and L-RWV series. The 2 series were compared against MDR strains of 6 organisms as indicated. The test medium was composed of physiologically relevant RFM (60% RPMI plus 10% fetal bovine serum or FBS and 30% cation-adjusted MHB); endogenous AMP control was Indolicidin (Indo); small-molecule antibiotic controls were cefazolin, ceftazidime (Ceft), and meropenem (Mero). MIC, minimum inhibitory concentration with means represented by the black and red horizontal bars, which are used to determine the MOLs (minimum optimal lengths) indicated by the red and black arrows. (A–F) is based on the test organism as indicated. Data are representative of 2 independent trials. Corresponding Table 2 provides the mean MICs for the strains of each organism. The numbers stand for each peptide: 8, L/H-RWV8; 10, L/H-RWV10, etc.; red bar, mean MIC of L-RWV peptides and black bars, mean MIC of H-RWV peptides.

Enterobacter spp. = type: cell-based; details: 18 h
Protocol: as §1, §2

E. coli = type: cell-based; details: 18 h
Protocol: as §1, §2

S. aureus = type: cell-based; details: 18 h
Protocol: as §1, §2

A. baumannii = type: cell-based; details: 18 h
Protocol: as §1, §2

K. pneumoniae = type: cell-based; details: 18 h
Protocol: as §1, §2

P. aeruginosa = type: cell-based; details: 18 h
Protocol: as §1, §2

[1] = system: S. aureus (SA719) biofilm; type: cell-based; details: 24 h
Protocol: as §1
Figure 3 Antibiofilm activities of the […] peptides. MBEC or minimum biofilm elimination concentration is the minimum concentration at which no biomass was detected by the crystal violet method. Standard deviations reflect differences between 2 independent trials. The dashed line is to clarify the mid-point between 0 and 5.

human red blood cells = assay: Red blood cell lysis; type: cell-based; details: H-RWV16 versus L-RWV12
Protocol: Lytic effects on human red blood cells were examined as previously described. Briefly, RBCs were separated by histopaque differential centrifugation using blood anonymously obtained from Vitalant (Pittsburgh, PA, USA). For RBC lysis assay, the isolated RBCs were resuspended in PBS at a concentration of 5%. The peptides were serially diluted 2-fold in 100 µL of PBS with a starting concentration of 32 µM. A volume of 100 µL of the prepared 5% RBC solution was then added for a final concentration of 2.5% RBC and incubated for 1 h. After incubation, the plates were centrifuged at 1000× g for 7 min and the supernatant was removed to measure its OD. In parallel, a standard curve of RBC lysis was generated by lysing the RBCs with deionized water at […] RBC dilutions of 10, 20, 30, 40, 50, 60, 70, 80, 90, and 100% to determine the percentage of RBC lysis in the test samples. Both the treated test samples and standard curve were read at A570. Three independent trials of the experiment were conducted.
Figure 4 Human RBC lytic effects of the […] peptides. Indolicidin (Indo) was used as control; RBC lysis was assayed in PBS as described in Methods. For clarity, the dashed line indicates the 10% lysis mark across the graph as a critical point between minor (<10%) and moderate (>10%) RBC lysis.

RRRRRRRRWWWWVVVV [L-RWV16]
Mean MIC, E. faecium (E. faecium): 32 µM | Mean MIC, Enterobacter spp. (Enterobacter spp.): 32 µM | Mean MIC, E. coli (E. coli): 24 ± 10 µM | Mean MIC, S. aureus (S. aureus): 32 µM | Mean MIC, A. baumannii (A. baumannii): 21 ± 11 µM | Mean MIC, K. pneumoniae (K. pneumoniae): 32 µM | Mean MIC, P. aeruginosa (P. aeruginosa): 32 µM

RRRRRRRWWWWVVV [L-RWV14]
Mean MIC, E. faecium (E. faecium): 19 ± 11 µM | Mean MIC, Enterobacter spp. (Enterobacter spp.): 16.9 ± 14 µM | Mean MIC, E. coli (E. coli): 4.4 ± 2.7 µM | Mean MIC, S. aureus (S. aureus): 3 ± 1 µM | Mean MIC, A. baumannii (A. baumannii): 7.4 ± 6.2 µM | Mean MIC, K. pneumoniae (K. pneumoniae): 3 ± 1 µM | Mean MIC, P. aeruginosa (P. aeruginosa): 21 ± 9 µM | MBEC (minimum biofilm elimination concentration, no detectable biomass) [1]: 2.6 ± 1.2 µM

RRRRRRWWWWVV [L-RWV12]
Mean MIC, E. coli (E. coli): 4.6 ± 1.6 µM | MBEC (minimum biofilm elimination concentration, no detectable biomass) [1]: 2.5 ± 1.3 µM

RRRRRWWWWV [L-RWV10]
Mean MIC, E. faecium (E. faecium): 21 ± 9.5 µM | Mean MIC, Enterobacter spp. (Enterobacter spp.): 32 µM | Mean MIC, E. coli (E. coli): 8 µM | Mean MIC, S. aureus (S. aureus): 26 ± 8 µM | Mean MIC, A. baumannii (A. baumannii): 8.5 ± 3.6 µM | Mean MIC, K. pneumoniae (K. pneumoniae): 26 ± 8.2 µM | Mean MIC, P. aeruginosa (P. aeruginosa): 22 ± 7.7 µM

RRRRWWWW [L-RWV8]
Mean MIC, E. faecium (E. faecium): 30 ± 5 µM | Mean MIC, Enterobacter spp. (Enterobacter spp.): 30.2 ± 5.3 µM | Mean MIC, E. coli (E. coli): 16 µM | Mean MIC, S. aureus (S. aureus): 20. ± 0.7 µM | Mean MIC, A. baumannii (A. baumannii): 10.2 ± 0.9 µM | Mean MIC, K. pneumoniae (K. pneumoniae): 20 ± 7.4 µM | Mean MIC, P. aeruginosa (P. aeruginosa): 30 ± 5.2 µM

RRVWRWVRRVWRWVRR [H-RWV16]
Lytic effect on human RBCs relative to L-RWV12 (human red blood cells): 3 fold

RRVWRWVRRWWR [H-RWV12]
Mean MIC, E. faecium (E. faecium): 28 ± 10 µM | Mean MIC, Enterobacter spp. (Enterobacter spp.): 28 ± 7.4 µM | Mean MIC, E. coli (E. coli): 6.4 ± 2.2 µM | Mean MIC, S. aureus (S. aureus): 18 ± 12 µM | Mean MIC, A. baumannii (A. baumannii): 6 ± 2.3 µM | Mean MIC, K. pneumoniae (K. pneumoniae): 18 ± 12 µM | Mean MIC, P. aeruginosa (P. aeruginosa): 24 ± 8 µM | MBEC (minimum biofilm elimination concentration, no detectable biomass) [1]: 2 µM

RRVWRWVRRWWRRV [H-RWV14]
RBC lysis: 3% | Mean MIC, E. faecium (E. faecium): 17 ± 12 µM | Mean MIC, Enterobacter spp. (Enterobacter spp.): 7.2 ± 5.6 µM | Mean MIC, S. aureus (S. aureus): 7.5 ± 12 µM | Mean MIC, A. baumannii (A. baumannii): 8 ± 5.6 µM | Mean MIC, K. pneumoniae (K. pneumoniae): 7.5 ± 12 µM | Mean MIC, P. aeruginosa (P. aeruginosa): 12 ± 4 µM | MBEC (minimum biofilm elimination concentration, no detectable biomass) [1]: 1.7 ± 0.5 µM

RRWWRRVWRW [H-RWV10]
Mean MIC, E. faecium (E. faecium): 19 ± 13 µM | Mean MIC, Enterobacter spp. (Enterobacter spp.): 32 µM | Mean MIC, E. coli (E. coli): 22 ± 8.8 µM | Mean MIC, S. aureus (S. aureus): 29 ± 6.5 µM | Mean MIC, A. baumannii (A. baumannii): 22 ± 12 µM | Mean MIC, K. pneumoniae (K. pneumoniae): 29 ± 6.5 µM | Mean MIC, P. aeruginosa (P. aeruginosa): 24 ± 8 µM

RRWWRRWW [H-RWV8]
Mean MIC, E. faecium (E. faecium): 32 µM | Mean MIC, Enterobacter spp. (Enterobacter spp.): 32 µM | Mean MIC, E. coli (E. coli): 24 ± 8.8 µM | Mean MIC, S. aureus (S. aureus): 29 ± 7 µM | Mean MIC, A. baumannii (A. baumannii): 24 ± 9.2 µM | Mean MIC, K. pneumoniae (K. pneumoniae): 29 ± 7.1 µM | Mean MIC, P. aeruginosa (P. aeruginosa): 27 ± 7.5 µM
